Data: PMC8887130 (Genes & Development, 2022)

Experiments:
CF II (hClp1-hPcf11) [1] = target: T1, CF II (hClp1-hPcf11) (Homo sapiens, UniProt Q92989); assay: […]'-dATP titration in reconstituted pre-mRNA cleavage, half-maximal activation; assay type: biochemical
CF II (hClp1-hPcf11) [2] = target: CF II (hClp1-hPcf11) (Homo sapiens, UniProt Q92989, R288A/R293K); assay: biochemical
CF II (hClp1-hPcf11) [3] = target: CF II (hClp1-hPcf11) (Homo sapiens, UniProt Q92989, E22Q); assay: biochemical
CF II (hClp1-hPcf11) [4] = target: CF II (hClp1-hPcf11) (Homo sapiens, UniProt Q92989, E22A); assay: biochemical
CF II (hClp1-hPcf11) [5] = target: T1, CF II (hClp1-hPcf11); assay: biochemical

T1 sequence (Q92989 whole entry): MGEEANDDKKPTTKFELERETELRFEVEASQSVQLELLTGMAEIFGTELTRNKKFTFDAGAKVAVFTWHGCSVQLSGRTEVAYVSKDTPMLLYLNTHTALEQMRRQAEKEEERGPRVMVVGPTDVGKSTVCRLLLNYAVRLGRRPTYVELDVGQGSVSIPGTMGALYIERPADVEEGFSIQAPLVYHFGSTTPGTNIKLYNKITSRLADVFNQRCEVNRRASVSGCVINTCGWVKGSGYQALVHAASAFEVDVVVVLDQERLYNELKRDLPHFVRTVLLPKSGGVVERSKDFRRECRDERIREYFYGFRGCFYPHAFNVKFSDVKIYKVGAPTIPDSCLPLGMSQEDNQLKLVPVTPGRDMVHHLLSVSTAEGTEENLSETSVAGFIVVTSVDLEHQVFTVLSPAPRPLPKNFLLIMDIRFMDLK
T1 sequence (O94913 2-1555 partner): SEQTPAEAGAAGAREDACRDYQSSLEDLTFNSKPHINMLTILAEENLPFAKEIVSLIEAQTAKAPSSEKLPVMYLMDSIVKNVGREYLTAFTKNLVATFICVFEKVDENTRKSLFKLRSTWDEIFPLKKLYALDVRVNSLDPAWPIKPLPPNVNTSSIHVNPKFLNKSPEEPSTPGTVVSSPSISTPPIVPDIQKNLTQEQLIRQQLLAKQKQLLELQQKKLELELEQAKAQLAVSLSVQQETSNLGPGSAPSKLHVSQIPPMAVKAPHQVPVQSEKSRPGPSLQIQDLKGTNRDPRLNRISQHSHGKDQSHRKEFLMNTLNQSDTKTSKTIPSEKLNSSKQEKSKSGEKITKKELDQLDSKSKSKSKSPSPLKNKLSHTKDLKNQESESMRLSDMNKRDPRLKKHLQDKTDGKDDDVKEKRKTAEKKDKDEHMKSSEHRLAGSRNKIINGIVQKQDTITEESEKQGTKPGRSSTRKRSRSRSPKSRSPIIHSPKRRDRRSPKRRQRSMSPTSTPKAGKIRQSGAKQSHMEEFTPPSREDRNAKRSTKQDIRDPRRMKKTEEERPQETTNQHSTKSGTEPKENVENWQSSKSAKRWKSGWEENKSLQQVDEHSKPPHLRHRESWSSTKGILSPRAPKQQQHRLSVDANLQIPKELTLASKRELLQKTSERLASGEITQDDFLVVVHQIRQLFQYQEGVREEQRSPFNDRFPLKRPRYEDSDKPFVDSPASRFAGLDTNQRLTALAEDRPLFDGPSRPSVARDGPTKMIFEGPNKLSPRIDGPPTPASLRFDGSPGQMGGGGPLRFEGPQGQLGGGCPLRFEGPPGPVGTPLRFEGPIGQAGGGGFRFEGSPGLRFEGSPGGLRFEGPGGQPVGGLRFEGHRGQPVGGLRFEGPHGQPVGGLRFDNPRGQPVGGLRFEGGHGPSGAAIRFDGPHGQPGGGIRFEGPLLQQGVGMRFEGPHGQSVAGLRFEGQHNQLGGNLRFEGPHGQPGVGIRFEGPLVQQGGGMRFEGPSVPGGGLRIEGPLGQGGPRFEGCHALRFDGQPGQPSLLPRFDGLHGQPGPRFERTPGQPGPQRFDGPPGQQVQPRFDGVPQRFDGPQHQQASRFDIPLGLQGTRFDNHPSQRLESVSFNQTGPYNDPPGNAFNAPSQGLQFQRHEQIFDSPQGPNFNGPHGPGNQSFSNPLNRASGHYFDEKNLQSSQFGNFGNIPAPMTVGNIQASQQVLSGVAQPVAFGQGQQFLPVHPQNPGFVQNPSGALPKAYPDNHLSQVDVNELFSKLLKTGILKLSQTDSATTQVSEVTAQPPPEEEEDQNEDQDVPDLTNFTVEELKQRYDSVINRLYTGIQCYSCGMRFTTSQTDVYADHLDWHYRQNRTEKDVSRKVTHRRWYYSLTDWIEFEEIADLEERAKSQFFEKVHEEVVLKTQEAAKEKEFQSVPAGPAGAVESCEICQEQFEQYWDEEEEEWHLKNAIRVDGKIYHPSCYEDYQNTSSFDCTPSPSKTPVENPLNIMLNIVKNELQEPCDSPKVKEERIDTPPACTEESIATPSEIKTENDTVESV
Chain of CF II (hClp1-hPcf11) (Homo sapiens, UniProt Q92989, R288A/R293K) (Q92989 whole entry R288A/R293K): as the sequence (Q92989 whole entry) above, with R288A, R293K counted along it
Chain of CF II (hClp1-hPcf11) (Homo sapiens, UniProt Q92989, R288A/R293K) (O94913 2-1555 partner): as the sequence (O94913 2-1555 partner) above
Chain of CF II (hClp1-hPcf11) (Homo sapiens, UniProt Q92989, E22A) (Q92989 whole entry E22A): as the sequence (Q92989 whole entry) above, with E22A counted along it
Chain of CF II (hClp1-hPcf11) (Homo sapiens, UniProt Q92989, E22A) (O94913 2-1555 partner): as the sequence (O94913 2-1555 partner) above
Chain of CF II (hClp1-hPcf11) (Homo sapiens, UniProt Q92989, E22Q) (Q92989 whole entry E22Q): as the sequence (Q92989 whole entry) above, with E22Q counted along it
Chain of CF II (hClp1-hPcf11) (Homo sapiens, UniProt Q92989, E22Q) (O94913 2-1555 partner): as the sequence (O94913 2-1555 partner) above

For `Nc1ncnc2c1ncn2[C@@H]1O[C@H](COP(=O)(O)OP(=O)(O)OP(=O)(O)O)C[C@H]1O` [3'-dATP], which EC50 (CF II (hClp1-hPcf11) [1]) is on record?
Its EC50 is 46.3 ± 7.4 µM.

With `Nc1ncnc2c1ncn2[C@@H]1O[C@H](COP(=O)(O)OP(=O)(O)OP(=O)(O)O)[C@@H](O)[C@H]1O` [ATP] as the compound, how does the EC50 (CF II (hClp1-hPcf11) [2]) read?
Its EC50 is 5.7 ± 3.4 µM.

And the EC50 (CF II (hClp1-hPcf11) [3])?
The EC50 was 95.9 ± 19.8 µM.

And the EC50 (CF II (hClp1-hPcf11) [4])?
Its EC50 is 10.9 ± 2.7 µM.

And the EC50 (CF II (hClp1-hPcf11) [5])?
Its EC50 is 0.5 ± 0.1 µM.
